From PubChem BioAssay (NCI)
Several values for one entry are separate records, joined by “and”; a condition that tells them apart may be missing. Identical values can stand only once.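 Exposure lasted 48 hours, with cells grown in 96-well plates and compounds tested at five concentrations. The concentration for 50% growth inhibition is given as GI50. At the TGI there is no net growth.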

Experiments:
Experiment in all cases: DTP human tumour cell line panel, 48 h
NCI-H522 lung = tested on: NCI-H522 lung
TK-10 renal = tested on: TK-10 renal
MDA-MB-435 = tested on: MDA-MB-435
K-562 leukemia = tested on: K-562 leukemia
MCF7 breast = tested on: MCF7 breast
IGROV1 ovarian = tested on: IGROV1 ovarian
A498 renal = tested on: A498 renal
M14 melanoma = tested on: M14 melanoma
MALME-3M melanoma = tested on: MALME-3M melanoma
HT29 colon = tested on: HT29 colon

| SMILES | GI50 (NCI-H522 lung) | TGI (NCI-H522 lung) | GI50 (TK-10 renal) | TGI (TK-10 renal) | GI50 (MDA-MB-435) | TGI (MDA-MB-435) | GI50 (K-562 leukemia) | TGI (K-562 leukemia) | GI50 (MCF7 breast) | TGI (MCF7 breast) | GI50 (IGROV1 ovarian) | TGI (IGROV1 ovarian) | GI50 (A498 renal) | TGI (A498 renal) | GI50 (M14 melanoma) | TGI (M14 melanoma) | GI50 (MALME-3M melanoma) | TGI (MALME-3M melanoma) | GI50 (HT29 colon) | TGI (HT29 colon) |
| --- | --- | --- | --- | --- | --- | --- | --- | --- | --- | --- | --- | --- | --- | --- | --- | --- | --- | --- | --- | --- |
| OCC#CCOCC#Cc1ccccc1C#CCOCC#CCO | 66500 nM | > 100 µM | 24.4 µM | 68.8 µM | 53.3 µM | > 100 µM | 27 µM | 90 µM | 40.7 µM | > 100 µM | > 100 µM | > 100 µM | 58.7 µM | > 100 µM | 20.2 µM | 49.9 µM |  |  |  |  |
| CC[C@@]1(O)C(=O)OCc2c1cc1n(c2=O)Cc2cc3cc(Cl)ccc3nc2-1 | 9.46 nM and 22 nM | 0.298 µM and 0.843 µM | 2.58 µM and 1.87 µM | > 100 µM | 0.089 µM | 0.357 µM | 0.00916 µM and 0.0873 µM | > 100 µM | 0.00364 µM |  | 0.0327 µM and 0.162 µM | 1.85 µM and 2.34 µM | 0.00878 µM and 0.0517 µM | 0.132 µM and 0.221 µM | 0.00467 µM | 0.0853 µM and 0.0476 µM | 0.0305 µM and 0.0444 µM | 0.818 µM and 0.564 µM | 0.0269 µM and 0.0187 µM | 0.203 µM |
| Nc1n[n+]([O-])c2cc([N+](=O)[O-])ccc2[n+]1[O-] |  | 4.25 µM |  | 86.1 µM |  | 3.26 µM |  | 11.7 µM |  | 11.7 µM |  | 13.2 µM |  | 36.6 µM |  | 20.4 µM |  |  |  | 10.1 µM |
| O=C(COc1ccc(/C=C2\Oc3ccc4ccccc4c3C2=O)cc1)c1ccc([N+](=O)[O-])cc1 | 2040 nM | 5.41 µM | 16.6 µM | 49.3 µM | 12.2 µM | 29.1 µM | 5.19 µM | > 100 µM | 1.71 µM | 20.3 µM | 4.06 µM | 34.1 µM | 41.5 µM | > 100 µM | 12.1 µM | 40.6 µM | 13.3 µM | 39.8 µM | 9.05 µM | 24 µM |
| O=CC(OC(=O)c1ccccc1)C(OC(=O)c1ccccc1)C(COC(c1ccccc1)(c1ccccc1)c1ccccc1)OC(=O)c1ccccc1 (configuration not stated) | 4720 nM | 18.7 µM | 20.4 µM | 50.3 µM | 12.8 µM | 46.7 µM | 8.09 µM | 27.4 µM | 6.38 µM | 23.7 µM | 12.4 µM | 37.7 µM | 15.5 µM | 29.7 µM | 14 µM | 30.3 µM | 30.3 µM | 95.2 µM | 11.7 µM | 26.3 µM |
| O=c1cc(-c2ccc(Cl)cc2)[nH]c2ccccc12 | 59600 nM | > 100 µM | > 100 µM | > 100 µM | 2.89 µM | 28.5 µM | 7.03 µM | > 100 µM | 41.3 µM | > 100 µM | 61.5 µM | > 100 µM | 51.6 µM | > 100 µM | 27.8 µM | > 100 µM | 53.5 µM | > 100 µM | 40.7 µM | > 100 µM |
| Cc1cccc(C(C)(C)C)c1NC(=O)C(C#N)C1=C(Cl)C(=O)c2ccccc2C1=O (configuration not stated) |  | 26.9 µM |  | 33.3 µM |  | 30.6 µM |  | 10.2 µM |  | 32.9 µM |  | 33 µM |  | 44.4 µM |  | 32.5 µM |  | 31.1 µM |  | 40.7 µM |
| OCC1NC(COC2OC(CO)C(O)C(O)C2O)C(O)C(O)C1O (configuration not stated) |  | > 100 µM |  | > 100 µM |  | > 100 µM |  | > 100 µM |  | > 100 µM |  | > 100 µM |  | > 100 µM |  | > 100 µM |  | > 100 µM |  | > 100 µM |
| COc1ccc(-n2cc(-c3cc(OC)c(OC)c(OC)c3)nc2SCc2ccc(Cl)cc2)cc1OC | 41200 nM | > 100 µM | > 100 µM | > 100 µM | > 100 µM | > 100 µM | 87.5 µM | > 100 µM | 92.6 µM | > 100 µM |  |  | 89 µM | > 100 µM | > 100 µM | > 100 µM | > 100 µM | > 100 µM | > 100 µM | > 100 µM |
| C[C@H]1CCC/C=C/C2CC(OC(=O)CN(C)C)CC2C(OC(=O)CN(C)C)/C=C/C(=O)O1 (some centres not stated) | 658 nM | 2.83 µM | 0.318 µM | 17.9 µM | 0.408 µM | > 100 µM | 3.29 µM | > 100 µM | 0.31 µM | 1.53 µM | 1.71 µM | 34.4 µM | 0.0508 µM | 0.282 µM | 0.178 µM | 4.65 µM | 0.171 µM | 0.371 µM | 0.342 µM | 3.8 µM |
| O=C(O)C1C2C=CC(O2)C1C(=O)NCc1cccnc1 (configuration not stated) |  | > 100 µM |  | > 100 µM |  | > 100 µM |  | > 100 µM |  | > 100 µM |  | > 100 µM |  | > 100 µM |  | > 100 µM |  | > 100 µM |  | > 100 µM |
| COc1ccccc1-n1cnc(N)c1C(=O)c1cc(OC)c(OC)c(OC)c1 | 1940 nM | > 100 µM | 5.21 µM | > 100 µM | 1.07 µM | 3.81 µM | 2.12 µM | > 100 µM | 2.49 µM | > 100 µM | 3.88 µM | > 100 µM | 2.79 µM | 9.69 µM | 3.5 µM | > 100 µM | 4.33 µM | > 100 µM | 3.41 µM | > 100 µM |
| COc1ccc(-c2nn(-c3cccc(Cl)c3)cc2/C=C2\NC(=S)N(c3ccc(Cl)cc3)C2=O)cc1 | 1980 nM | 6.21 µM | 6.37 µM | 16 µM | 7.38 µM | > 25 µM | 3.12 µM | 7.92 µM | 5.6 µM | > 25 µM | 4.99 µM | 10.1 µM | 3.51 µM | 8.56 µM | 4.39 µM | 10.2 µM | 5.03 µM | 11.3 µM | 4.99 µM | 10.6 µM |
| N#Cc1ncc(C(Cl)Cl)nc1Cl |  | 1.74 µM |  | 3.82 µM |  | 3.9 µM |  | > 7.1 µM |  | 3.86 µM |  | 5.3 µM |  | > 10 µM |  | 2.82 µM |  | > 6.39 µM |  | 3.16 µM |
